# According to patent EP4610269A1, “UROKINASE PLASMINOGEN ACTIVATOR SURFACE RECEPTOR (UPAR) LIGANDS FOR DIAGNOSTIC OR THERAPEUTIC USE” (3B Pharmaceuticals GmbH, priority 2024, dated 2025):
# Where a SMILES comes first, the peptide text is derived from it. Bridges are numbered along the chain shown (N, C = ends). [ ]: non-standard residue; d: D form. The star is where a group is joined. Hyp = O=C(O)[C@@H]1C[C@@H](O)CN1; Pentanoyl(4-Me) = CC(C)CCC(=O)*; Cit = NC(=O)NCCC[C@H](N)C(=O)O; Phg = N[C@H](C(=O)O)c1ccccc1; dOrn = NCCC[C@@H](N)C(=O)O; Nle = CCCC[C@H](N)C(=O)O; Nva = CCC[C@H](N)C(=O)O; Pentanoyl = CCCCC(=O)*; Aib = CC(C)(N)C(=O)O
# Columns and labels:
# [1] = target: T1, uPAR-expressing HEC-265 human endometrial adenocarcinoma cells (Homo sapiens, UniProt Q03405); test: Competitive FACS binding assay; conditions: pIC50 category of FACS binding
# T1 construct: Cell surface uPAR-expressing HEC-265 human endometrial adenocarcinoma cells; host or cells: HEC-265
# Summary of the method: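 HEC-265 cells incubated 1 h at 4 °C with 10 nM biotinylated uPAR peptide tracer plus increasing test compound, then stained with APC-streptavidin on ice. Median APC fluorescence by flow cytometry; 4PL fit gives pIC50.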
# [2] = target: T2, human uPAR (uPAR-Fc) (Homo sapiens, UniProt Q03405); test: Surface plasmon resonance (SPR) assay, single cycle kinetics; assay type: binding; conditions: pKD category for uPAR SPR activity assay; uPAR-Fc on Protein A-Chip, single cycle kinetics, 25°C; read-out: pKD CAT (converted)
# T2 construct: comprising amino acids Leu23-Arg303 according to UniProt entry Q03405.1; purchased R&D Systems 10378-UK-100
# Summary of the method: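 uPAR-Fc (Leu23-Arg303 extracellular domains, human IgG1 Fc) captured on Protein A chip to ~2000 RU; single-cycle kinetics at 25°C in HEPES running buffer pH 7.4 with 0.1% DMSO. KD from double-referenced sensorgrams fitted to 1:1 Langmuir model, reported as pKD.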
# T2 sequence (Q03405 23-303): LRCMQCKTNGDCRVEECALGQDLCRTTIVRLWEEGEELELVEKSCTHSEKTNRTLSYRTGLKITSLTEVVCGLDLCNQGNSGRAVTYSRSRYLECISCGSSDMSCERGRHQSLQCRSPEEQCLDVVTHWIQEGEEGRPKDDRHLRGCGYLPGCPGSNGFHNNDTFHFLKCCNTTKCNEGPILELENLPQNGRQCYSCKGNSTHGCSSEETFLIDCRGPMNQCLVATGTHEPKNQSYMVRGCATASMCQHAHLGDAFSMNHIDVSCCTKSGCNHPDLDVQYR
# T1 sequence (Q03405 23-335): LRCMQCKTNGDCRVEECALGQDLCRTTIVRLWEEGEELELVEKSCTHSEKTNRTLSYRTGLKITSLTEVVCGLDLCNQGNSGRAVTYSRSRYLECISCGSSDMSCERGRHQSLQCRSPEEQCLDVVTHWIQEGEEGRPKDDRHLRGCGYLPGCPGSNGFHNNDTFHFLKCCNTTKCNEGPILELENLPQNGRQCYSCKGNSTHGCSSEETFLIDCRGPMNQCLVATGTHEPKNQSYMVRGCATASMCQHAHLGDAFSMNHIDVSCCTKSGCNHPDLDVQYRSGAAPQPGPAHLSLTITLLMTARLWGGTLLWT
IC50 [1],Kd [2],SMILES
≤ 10 nM,< 1.58 nM,"CCCCC(=O)N[C@H]1CSSC[C@@H](C(N)=O)NC(=O)[C@H](CCC)NC(=O)[C@H]([C@@H](C)CC)NC(=O)[C@@H]2C[C@@H](O)CN2C(=O)[C@H](CC(C)C)NC(=O)[C@H](Cc2ccccc2)NC(=O)[C@H](Cc2ccc(O)cc2)NC(=O)[C@H](CCC(N)=O)NC(=O)[C@H](CCCNC(=N)N)NC1=O [UPAR-433, Pent-[Cys-Arg-Gln-Tyr-Phe-Leu-Hyp-Ile-Nva-Cys]-NH2] (Pentanoyl-CRQYFL[Hyp]I[Nva]C-NH2; disulfide 1-10)"
12.6 to 31.6 nM,10 to 100 nM,"CCCCC(=O)N[C@H]1CSSC[C@@H](C(N)=O)NC(=O)[C@H](CCC)NC(=O)[C@H]([C@@H](C)CC)NC(=O)[C@@H](CCC(=O)O)NC(=O)[C@@H]2CCCN2C(=O)[C@H](Cc2ccccc2)NC(=O)[C@H](Cc2ccc(O)cc2)NC(=O)[C@H](CCC(N)=O)NC(=O)[C@H](CCCNC(=N)N)NC1=O [UPAR-436, Pent-[Cys-Arg-Gln-Tyr-Phe-Pro-glu-Ile-Nva-Cys]-NH2] (Pentanoyl-CRQYFP[dE]I[Nva]C-NH2; disulfide 1-10)"
≤ 10 nM,< 1.58 nM,"CCCCC(=O)N[C@H]1CSSC[C@@H](C(N)=O)NC(=O)[C@H](CCC)NC(=O)[C@H](c2ccccc2)NC(=O)[C@@H]2C[C@@H](O)CN2C(=O)[C@@H]2CCCN2C(=O)[C@H](Cc2ccccc2)NC(=O)[C@H](Cc2ccc(O)cc2)NC(=O)[C@H](CCC(N)=O)NC(=O)[C@H](CCCNC(=N)N)NC1=O [UPAR-437, Pent-[Cys-Arg-Gln-Tyr-Phe-Pro-Hyp-Phg-Nva-Cys]-NHz] (Pentanoyl-CRQYFP[Hyp][Phg][Nva]C-NH2; disulfide 1-10)"
12.6 to 31.6 nM,1.58 to 10 nM,"CCCCC(=O)N[C@H]1CSSC[C@@H](C(N)=O)NC(=O)[C@H](CCC)NC(=O)[C@H]([C@@H](C)CC)NC(=O)[C@@H](CCCN)NC(=O)[C@@H]2CCCN2C(=O)[C@H](Cc2ccccc2)NC(=O)[C@H](Cc2ccc(O)cc2)NC(=O)[C@H](CCC(N)=O)NC(=O)[C@H](CCCNC(=N)N)NC1=O [UPAR-438, Pent-[Cys-Arg-Gln-Tyr-Phe-Pro-orn-Ile-Nva-Cys]-NH2] (Pentanoyl-CRQYFP[dOrn]I[Nva]C-NH2; disulfide 1-10)"
≤ 10 nM,1.58 to 10 nM,"CC[C@H](C)[C@@H]1NC(=O)[C@@H](C)NC(=O)[C@@H]2C[C@@H](O)CN2C(=O)[C@H](Cc2ccccc2)NC(=O)[C@H](Cc2ccc(O)cc2)NC(=O)[C@H](CCC(N)=O)NC(=O)[C@H](CCCNC(N)=O)NC(=O)[C@@H](NC(=O)CCC(C)C)CSSC[C@@H](C(N)=O)NC(=O)[C@H](CC(C)C)NC1=O [UPAR-439, iHex-[Cys-Cit-Gln-Tyr-Phe-Hyp-ala-Ile-Leu-Cys]-NH2] ({Pentanoyl(4-Me)}-C[Cit]QYF[Hyp][dA]ILC-NH2; disulfide 1-10)"
≤ 10 nM,< 1.58 nM,"CCCC[C@@H]1NC(=O)[C@H](CCCNC(=N)N)NC(=O)[C@@H](NC(=O)[C@H](CC(C)C)NC(=O)[C@H](CC(=O)O)NC(C)=O)CSSC[C@@H](C(N)=O)NC(=O)[C@H](CC(C)C)NC(=O)[C@H]([C@@H](C)CC)NC(=O)C(C)(C)NC(=O)[C@@H]2CCCN2C(=O)[C@H](Cc2ccccc2)NC(=O)[C@H](Cc2ccc(O)cc2)NC1=O [UPAR-440, Ac-Asp-Leu-[Cys-Arg-Nle-Tyr-Phe-Pro-Aib-Ile-Leu-Cys]-NH2] (Ac-DLCR[Nle]YFP[Aib]ILC-NH2; disulfide 3-12)"
39.8 to 100 nM,10 to 100 nM,"CCCCC(=O)N[C@H]1CSSC[C@@H](C(N)=O)NC(=O)[C@H](CCC)NC(=O)[C@H]([C@@H](C)CC)NC(=O)[C@@H]2C[C@@H](O)CN2C(=O)[C@@H]2CCCN2C(=O)[C@H](Cc2ccccc2)NC(=O)[C@H](CCCCN)NC(=O)[C@H](CCC(N)=O)NC(=O)[C@H](CCCNC(=N)N)NC1=O [UPAR-442, Pent-[Cys-Arg-Gln-Lys-Phe-Pro-Hyp-Ile-Nva-Cys]-NH2] (Pentanoyl-CRQKFP[Hyp]I[Nva]C-NH2; disulfide 1-10)"
